The test system of the assay is Hoodia explants. Put plainly: In vitro rooting of Hoodia explants on rooting media (basal salts, phytohormones, charcoal). To be noted: experiment 11 medium with just IBA or just NAA alone. The format is cell-based. Here is the method: The explants are placed onto rooting medium 1-2 cm deep in the medium in an erect position. The distance between the explants is the same as for the multiplication phase, although they may be placed closer (i.e. about 0.5-1 cm apart), as they are no longer producing new shoots. The rooted plans are kept in the rooting medium under conditions of darkness at temperature of 26±2° C., typically for about 2-3 weeks, and later are placed under light until roots develop before going into the greenhouse for hardening. In all the multiplication and later rooting trials, the experiments were carried out in a randomised factorial design with at least four replicates per treatment. The student's t-test was used to determine significant difference between the phytohormone treatments. P values ≦0.05 was considered significant. This example investigated various concentrations basal salt medium, vitamins (those in M&S medium, always included at full strength), and various phytohormones on rooting. Each experiment was replicated four times and statistical analysis has been carried out as described above.

Turning to `O=C(O)CCCc1c[nH]c2ccccc12` [IBA, indole-3-butyric acid], the “root formation when experiment 11 was repeated with a single auxin” value is recorded as “no roots could be obtained”.
With `O=C(O)Cc1cccc2ccccc12` [NAA, α-naphthalene acetic acid], the “root formation when experiment 11 was repeated with a single auxin” value is given as “no roots could be obtained”.

The values above are taken from patent US20080261310A1, “IN VITRO ROOTING OF HOODIA PLANTS” (CONOPCO, INC., D/B/A/ UNILEVER, priority 2007, published 2008).
